# Experimental data as given in patent US11879132B2, “Plants having increased tolerance to herbicides” (BASF AGRO B.V., priority 2016, dated 2024).
# Where two headings read alike, the source gives them in different places.
# Experiments:
# [1] = test system: empty vector-transformed leaf discs; assay: PSII yield inhibition in tobacco leaf discs (imaging PAM chlorophyll fluorescence); format: cell-based; conditions: Nicotiana benthamiana, read-out: IC50 of PSII yield inhibition
# Text: Transient expression of mutated PPO sequences as wildtype or with respective mutations were done as described previously (Voinnet O., et al., 2003, The Plant Journal 33, 949-956). In brief, cloning of GOI and Agrobacterium transformation (strain: GV2260) were done as described in EXAMPLE 5. Young leaves of Nicotiana benthamiana were infiltrated with transgenic Agrobacterium suspension (OD^600 of 1.0) harboring binary vector constructs containing a GO/gene controlled by a promoter and terminator sequence. 48 h to 72 h after infiltration punches of leave discs (0.75 cm in diameter) were transferred to 6-well plates with medium (half strength Linsmaier-Skoog (Linsmaier and Skoog (1965) Physiol. Plant. 18: 100-127) nutrient solution or water) containing herbicide of interest in different concentrations. […]
# Leaf discs, generated as described in EXAMPLE 14, expressing a protein encoded by GOI, were subjected to analysis on improved tolerance to herbicide treatment. For analysis of herbicide damage, chlorophyll fluorescence were identified as indicative marker (Dayan and Zaccaro (2012) Pest. Biochem. Physiol. 102: 189-197). […] PSII yield were measured as per manufacturer instructions.
# Tolerance factors were calculated based on IC50 values of PSII yield inhibition of transformed versus empty vector-transformed leaf discs.
# [2] = test system: transgenic Arabidopsis AMATU_PPO2_wild_type; assay: Germination assay, transgenic ARBTH germinating in medium containing selection agent (48-well plates); format: in vivo, Arabidopsis thaliana
# Description: (§1) Transgenic Arabidopsis thaliana plants are assayed for improved tolerance to saflufenacil, 1,5-dimethyl-6-thioxo-3-(2,2,7-trifluoro-3-oxo-4-(prop-2-ynyl)-3,4-dihydro-2H-benzo[b][1,4]oxazin-6-yl)-1,3,5-triazinane-2,4-dione (CAS 1258836-72-4/trifludimoxazin), flumioxazin, butafenacil, acifluorfen, lactofen, bifenox, sulfentrazone, and photosynthesis inhibitor diuron as negative control in 48-well plates. Therefore, T2 seeds are surface sterilized by stirring for 5 min in ethanol+water (70+30 by volume), rinsing one time with ethanol+water (70+30 by volume) and two times with sterile, deionized water. The seeds are resuspended in 0.1% agar dissolved in water (w/v) Four to five seeds per well are plated on solid nutrient medium consisting of half-strength murashige skoog nutrient solution, pH 5.8 (Murashige and Skoog (1962) Physiologia Plantarum 15: 473-497). Compounds are dissolved in dimethylsulfoxid (DMSO) and added to the medium prior solidification (final DMSO concentration 0.1%). Multi well plates are incubated in a growth chamber at 22° C., 75% relative humidity and 110 μmol Phot*m^−2*s^−1 with 14: 10 h light: dark photoperiod. Growth inhibition is evaluated seven to ten days after seeding in comparison to wild type plants.
# as §1, with “negative control,” for “negative control”, “inhibition was” for “inhibition is”, “plants. Additionally, transgenic T1 Arabidopsis plants were tested for improved tolerance to herbicides in greenhouse studies with the following herbicides: saflufenacil, 1,5-dimethyl-6-thioxo-3-(2,2,7-trifluoro-3-oxo-4-(prop-2-ynyl)-3,4-dihydro-2H-benzo[b][1,4]oxazin-6-yl)-1,3,5-triazinane-2,4-dione (CAS 1258836-72-4/trifludimoxazin), flumioxazin, butafenacil, acifluorfen, lactofen, bifenox, sulfentrazone, and photosynthesis inhibitor diuron as negative control.” for “plants.”
# [3] = test system: transgenic Arabidopsis AMATU_PPO2_G211A_F420M; assay: as above; format: in vivo, Arabidopsis thaliana; conditions: for IC50: Arabidopsis thaliana
# Description: as §1
# as §1, with “negative control,” for “negative control”, “inhibition was” for “inhibition is”, “plants. Additionally, transgenic T1 Arabidopsis plants were tested for improved tolerance to herbicides in greenhouse studies with the following herbicides: saflufenacil, 1,5-dimethyl-6-thioxo-3-(2,2,7-trifluoro-3-oxo-4-(prop-2-ynyl)-3,4-dihydro-2H-benzo[b][1,4]oxazin-6-yl)-1,3,5-triazinane-2,4-dione (CAS 1258836-72-4/trifludimoxazin), flumioxazin, butafenacil, acifluorfen, lactofen, bifenox, sulfentrazone, and photosynthesis inhibitor diuron as negative control.” for “plants.”
# [4] = test system: non-transgenic (MC-24) Arabidopsis; assay: Germination assay, ARBTH germinating in medium containing selection agent (48-well plates); format: in vivo, Arabidopsis thaliana
# Description: Transgenic Arabidopsis thaliana plants are assayed for improved tolerance to saflufenacil, 1,5-dimethyl-6-thioxo-3-(2,2,7-trifluoro-3-oxo-4-(prop-2-ynyl)-3,4-dihydro-2H-benzo[b][1,4]oxazin-6-yl)-1,3,5-triazinane-2,4-dione (CAS 1258836-72-4/trifludimoxazin), flumioxazin, butafenacil, acifluorfen, lactofen, bifenox, sulfentrazone, and photosynthesis inhibitor diuron as negative control in 48-well plates. Therefore, T2 seeds are surface sterilized by stirring for 5 min in ethanol+water (70+30 by volume), rinsing one time with ethanol+water (70+30 by volume) and two times with sterile, deionized water. […] Growth inhibition is evaluated seven to ten days after seeding in comparison to wild type plants.
# Transgenic Arabidopsis thaliana plants are assayed for improved tolerance to saflufenacil, 1,5-dimethyl-6-thioxo-3-(2,2,7-trifluoro-3-oxo-4-(prop-2-ynyl)-3,4-dihydro-2H-benzo[b][1,4]oxazin-6-yl)-1,3,5-triazinane-2,4-dione (CAS 1258836-72-4/trifludimoxazin), flumioxazin, butafenacil, acifluorfen, lactofen, bifenox, sulfentrazone, and photosynthesis inhibitor diuron as negative control, in 48-well plates. […] Growth inhibition was evaluated seven to ten days after seeding in comparison to wild type plants. […]
SMILES,"IC50 ([1]; empty vector-transformed leaf discs, treated for 48 h)",Tolerance Factor (non transgeneic = 1.0) [2],IC50 ([2]; Arabidopsis thaliana),IC50 ([3]; Event D),IC50 ([3]; Event M),IC50 ([3]; Event P),IC50 ([3]; Event Q),IC50 ([3]; Event R),Tolerance Factor (non transgeneic = 1.0) ([3]; Event D),Tolerance Factor (non transgeneic = 1.0) ([3]; Event M),Tolerance Factor (non transgeneic = 1.0) ([3]; Event P),Tolerance Factor (non transgeneic = 1.0) ([3]; Event Q),Tolerance Factor (non transgeneic = 1.0) ([3]; Event R),IC50 ([1]; 48 h),Tolerance Factor (non transgeneic = 1.0) [4],IC50 ([4]; Arabidopsis thaliana)
"C#CCN1C(=O)C(F)(F)Oc2cc(F)c(-n3c(=O)n(C)c(=S)n(C)c3=O)cc21 [1,5-dimethyl-6-thioxo-3-(2,2,7-trifluoro-3-oxo-4-(prop-2-ynyl)-3,4-dihydro-2H-benzo[b][1,4]oxazin-6-yl)-1,3,5-triazinane-2,4-dione]",0.011 µM,–,–,–,–,–,–,–,–,–,–,–,–,–,–,–
CC(C)N(C)S(=O)(=O)NC(=O)c1cc(-n2c(=O)cc(C(F)(F)F)n(C)c2=O)c(F)cc1Cl [Saflufenacil],–,10,0.106 µM,25 µM,25 µM,7.5 µM,7.5 µM,7.5 µM,1000,1000,300,300,300,0.11 µM,1,0.025 µM
